Test results published in US20210045385A1, “PYRIDAZINONE-SUBSTITUTED KETOXIMES AS HERBICIDES” (FMC Corporation, priority 2018, published 2021).

Assays:
Assay type in all cases: in vivo
[1] = tested on: Italian ryegrass (Lolium mutiflorum); assay: Test C preemergence, visual plant response rating
In short: (§1)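 Visual injury on a 0 (no effect) to 100 (complete control) scale versus untreated controls, scored approximately 10 d after treatment under greenhouse conditions. Treatments used surfactant-containing non-phytotoxic solvent formulations, sprayed onto loam–sand soil preemergence or onto one- to two-leaf plants 2–10 cm tall postemergence.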

[2] = tested on: barnyardgrass (Echinochloa crus-galli); assay: Test C preemergence, visual plant response rating
In short: as §1

[3] = tested on: foxtail, giant (giant foxtail, Setaria faberi); assay: Test C preemergence, visual plant response rating
In short: as §1

kochia (Bassia scoparia) [4] = assay: Test C preemergence, visual plant response rating
In short: as §1

[5] = tested on: pigweed (Amaranthus retroflexus); assay: Test C preemergence, visual plant response rating
In short: as §1

[6] = tested on: ragweed (common ragweed, Ambrosia artemisiifolia); assay: Test C preemergence, visual plant response rating
In short: as §1

[7] = tested on: Italian ryegrass (Lolium mutiflorum); assay: Test C postemergence, visual plant response rating
In short: as §1

[8] = tested on: barnyardgrass (Echinochloa crus-galli); assay: Test C postemergence, visual plant response rating
In short: as §1

[9] = tested on: blackgrass (Alopecurus myosuroides); assay: Test C postemergence, visual plant response rating
In short: as §1

corn (Zea mays) = assay: Test C postemergence, visual plant response rating
In short: as §1

[10] = tested on: foxtail, giant (giant foxtail, Setaria faberi); assay: Test C postemergence, visual plant response rating
In short: as §1

[11] = tested on: galium (catchweed bedstraw, Galium aparine); assay: Test C postemergence, visual plant response rating
In short: as §1

kochia (Bassia scoparia) [12] = assay: Test C postemergence, visual plant response rating
In short: as §1

[13] = tested on: pigweed (Amaranthus retroflexus); assay: Test C postemergence, visual plant response rating
In short: as §1

[14] = tested on: ragweed (common ragweed, Ambrosia artemisiifolia); assay: Test C postemergence, visual plant response rating
In short: as §1

[15] = tested on: wheat (Triticum aestivum); assay: Test C postemergence, visual plant response rating
In short: as §1

[16] = tested on: barnyardgrass (Echinochloa crus-galli); assay: Test D flooded paddy test, visual plant response rating; settings: 250 g ai/ha, scale 0 to 100 (0 no effect, 100 complete control), 13 to 15 d
In short: (§2)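 Visual injury scores, 0 (no effect) to 100 (complete control), were assigned after 13 to 15 d in the greenhouse by comparison with controls. Test compounds had been added to paddy water covering soil by 3 cm at the 2-leaf stage.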

[17] = tested on: duck salad (Heteranthera limosa); assay: as above; settings: 250 g ai/ha, scale 0 to 100 (0 no effect, 100 complete control), 13 to 15 d
In short: as §2

rice (Oryza sativa) = assay: as above; settings: 250 g ai/ha, scale 0 to 100 (0 no effect, 100 complete control), 13 to 15 d
In short: as §2

[18] = tested on: sedge umbrella (small-flower umbrella sedge, Cyperus difformis); assay: as above; settings: 250 g ai/ha, scale 0 to 100 (0 no effect, 100 complete control), 13 to 15 d
In short: as §2

[19] = Test C, 31 g ai/ha, 0 is no effect, 100 is complete control
[20] = Test C, 125 g ai/ha, 0 is no effect, 100 is complete control
[21] = Test C, postemergence, 125 g ai/ha
[22] = Test C, postemergence, 1000 g ai/ha

| Compound | Ryegrass, Italian plant response rating (0 to 100 scale) [1, 19] | Ryegrass, Italian plant response rating (0 to 100 scale) [1, 20] | Barnyardgrass plant response rating (0 to 100 scale) [2, 19] | Barnyardgrass plant response rating (0 to 100 scale) [2, 20] | Foxtail, Giant plant response rating (0 to 100 scale) [3, 19] | Foxtail, Giant plant response rating (0 to 100 scale) [3, 20] | Kochia plant response rating (0 to 100 scale) (kochia (Bassia scoparia) [4]; [19]) | Kochia plant response rating (0 to 100 scale) (kochia (Bassia scoparia) [4]; [20]) | Pigweed plant response rating (0 to 100 scale) [5, 19] | Pigweed plant response rating (0 to 100 scale) [5, 20] | Ragweed plant response rating (0 to 100 scale) [6, 19] | Ragweed plant response rating (0 to 100 scale) [6, 20] | Ryegrass, Italian plant response rating (0 to 100 scale) ([7]; Postemergence, 31 g ai/ha) | Ryegrass, Italian plant response rating (0 to 100 scale) [7, 21] | Barnyardgrass plant response rating (0 to 100 scale) ([8]; Postemergence, 31 g ai/ha) | Barnyardgrass plant response rating (0 to 100 scale) [8, 21] | Plant response rating, Barnyardgrass (Flood) [16] | Plant response rating, Ducksalad (Flood) [17] | Plant response rating, Rice (Flood) (rice (Oryza sativa)) | Plant response rating, Sedge, Umbrella (Flood) [18] | also measured |
| --- | --- | --- | --- | --- | --- | --- | --- | --- | --- | --- | --- | --- | --- | --- | --- | --- | --- | --- | --- | --- | --- |
| CON=C(c1cc(Cl)cc(F)c1Cl)c1c(O)c(C)nn(C)c1=O [Compound 272] | 90 | 100 | 30 | 50 | 80 | 80 | 10 | 90 | 70 | 100 | 20 | 40 | 90 | 100 | 40 | 60 | 25 | 60 | 15 | 65 | Blackgrass plant response rating (0 to 100 scale) ([9]; Postemergence, 31 g ai/ha): 30; Blackgrass plant response rating (0 to 100 scale) [9, 21]: 80; Corn plant response rating (0 to 100 scale) (corn (Zea mays); Postemergence, 31 g ai/ha): 10; Corn plant response rating (0 to 100 scale) (corn (Zea mays); [21]): 20; Foxtail, Giant plant response rating (0 to 100 scale) ([10]; Postemergence, 31 g ai/ha): 60; Foxtail, Giant plant response rating (0 to 100 scale) [10, 21]: 90; Galium plant response rating (0 to 100 scale) ([11]; Postemergence, 31 g ai/ha): 90; Galium plant response rating (0 to 100 scale) [11, 21]: 100; Kochia plant response rating (0 to 100 scale) (kochia (Bassia scoparia) [12]; Postemergence, 31 g ai/ha): 70; Kochia plant response rating (0 to 100 scale) (kochia (Bassia scoparia) [12]; [21]): 80; Pigweed plant response rating (0 to 100 scale) ([13]; Postemergence, 31 g ai/ha): 70; Pigweed plant response rating (0 to 100 scale) [13, 21]: 90; Ragweed plant response rating (0 to 100 scale) ([14]; Postemergence, 31 g ai/ha): 60; Ragweed plant response rating (0 to 100 scale) [14, 21]: 80; Wheat plant response rating (0 to 100 scale) ([15]; Postemergence, 31 g ai/ha): 30; Wheat plant response rating (0 to 100 scale) [15, 21]: 60 |
| CO/N=C(\c1cccc(/C=C\Cl)c1)c1c(O)c(C)nn(C)c1=O [Compound 288] | 70 | 100 | 70 | 100 | 40 | 100 | 0 | 30 | 0 | 0 | 10 | 20 | 40 | 100 | 70 | 100 | 0 | 0 | 0 | 0 | Blackgrass plant response rating (0 to 100 scale) ([9]; Postemergence, 31 g ai/ha): 40; Blackgrass plant response rating (0 to 100 scale) [9, 21]: 40; Corn plant response rating (0 to 100 scale) (corn (Zea mays); Postemergence, 31 g ai/ha): 10; Corn plant response rating (0 to 100 scale) (corn (Zea mays); [21]): 20; Foxtail, Giant plant response rating (0 to 100 scale) ([10]; Postemergence, 31 g ai/ha): 80; Foxtail, Giant plant response rating (0 to 100 scale) [10, 21]: 90; Galium plant response rating (0 to 100 scale) ([11]; Postemergence, 31 g ai/ha): 60; Galium plant response rating (0 to 100 scale) [11, 21]: 80; Kochia plant response rating (0 to 100 scale) (kochia (Bassia scoparia) [12]; Postemergence, 31 g ai/ha): 10; Kochia plant response rating (0 to 100 scale) (kochia (Bassia scoparia) [12]; [21]): 30; Pigweed plant response rating (0 to 100 scale) ([13]; Postemergence, 31 g ai/ha): 0; Pigweed plant response rating (0 to 100 scale) [13, 21]: 30; Ragweed plant response rating (0 to 100 scale) ([14]; Postemergence, 31 g ai/ha): 30; Ragweed plant response rating (0 to 100 scale) [14, 21]: 60; Wheat plant response rating (0 to 100 scale) ([15]; Postemergence, 31 g ai/ha): 0; Wheat plant response rating (0 to 100 scale) [15, 21]: 0 |
| CC(C)O/N=C(\c1c(O)cnn(C)c1=O)c1cccc2ccccc12 [Compound 222] | – | – | – | – | – | – | – | – | – | – | – | – | – | – | – | – | 0 | 0 | 0 | 0 | Ryegrass, Italian plant response rating (0 to 100 scale) ([1]; 1000 g ai/ha): 0; Barnyardgrass plant response rating (0 to 100 scale) ([2]; 1000 g ai/ha): 0; Foxtail, Giant plant response rating (0 to 100 scale) ([3]; 1000 g ai/ha): 50; Kochia plant response rating (0 to 100 scale) (kochia (Bassia scoparia) [4]; 1000 g ai/ha): 0; Pigweed plant response rating (0 to 100 scale) ([5]; 1000 g ai/ha): 100; Ragweed plant response rating (0 to 100 scale) ([6]; 1000 g ai/ha): 50; Ryegrass, Italian plant response rating (0 to 100 scale) [7, 22]: 0; Barnyardgrass plant response rating (0 to 100 scale) [8, 22]: 10; Blackgrass plant response rating (0 to 100 scale) [9, 22]: 0; Corn plant response rating (0 to 100 scale) (corn (Zea mays); [22]): 0; Foxtail, Giant plant response rating (0 to 100 scale) [10, 22]: 20; Galium plant response rating (0 to 100 scale) [11, 22]: 90; Kochia plant response rating (0 to 100 scale) (kochia (Bassia scoparia) [12]; [22]): 0; Pigweed plant response rating (0 to 100 scale) [13, 22]: 90; Ragweed plant response rating (0 to 100 scale) [14, 22]: 50; Wheat plant response rating (0 to 100 scale) [15, 22]: 0 |
| C#CCON=C(c1cccc(OC(F)F)c1)c1c(O)c(C)nn(C)c1=O [Compound 201] | 10 | 80 | 0 | 10 | 10 | 30 | 0 | 0 | 0 | 0 | 0 | 20 | 30 | 60 | 10 | 40 | 0 | 0 | 0 | 0 | Blackgrass plant response rating (0 to 100 scale) ([9]; Postemergence, 31 g ai/ha): 10; Blackgrass plant response rating (0 to 100 scale) [9, 21]: 50; Corn plant response rating (0 to 100 scale) (corn (Zea mays); Postemergence, 31 g ai/ha): 0; Corn plant response rating (0 to 100 scale) (corn (Zea mays); [21]): 0; Foxtail, Giant plant response rating (0 to 100 scale) ([10]; Postemergence, 31 g ai/ha): 20; Foxtail, Giant plant response rating (0 to 100 scale) [10, 21]: 40; Galium plant response rating (0 to 100 scale) ([11]; Postemergence, 31 g ai/ha): 50; Galium plant response rating (0 to 100 scale) [11, 21]: 80; Kochia plant response rating (0 to 100 scale) (kochia (Bassia scoparia) [12]; Postemergence, 31 g ai/ha): 40; Kochia plant response rating (0 to 100 scale) (kochia (Bassia scoparia) [12]; [21]): 70; Pigweed plant response rating (0 to 100 scale) ([13]; Postemergence, 31 g ai/ha): 20; Pigweed plant response rating (0 to 100 scale) [13, 21]: 70; Ragweed plant response rating (0 to 100 scale) ([14]; Postemergence, 31 g ai/ha): 10; Ragweed plant response rating (0 to 100 scale) [14, 21]: 30; Wheat plant response rating (0 to 100 scale) ([15]; Postemergence, 31 g ai/ha): 0; Wheat plant response rating (0 to 100 scale) [15, 21]: 40 |
| CON=C(c1cc(F)cc(F)c1F)c1c(O)c(C)nn(C)c1=O [Compound 227] | 30 | 60 | 0 | 20 | 0 | 30 | 0 | 10 | 0 | 10 | 20 | 80 | 20 | 40 | 0 | 20 | 0 | 0 | 0 | 0 | Blackgrass plant response rating (0 to 100 scale) ([9]; Postemergence, 31 g ai/ha): 0; Blackgrass plant response rating (0 to 100 scale) [9, 21]: 0; Corn plant response rating (0 to 100 scale) (corn (Zea mays); Postemergence, 31 g ai/ha): 0; Corn plant response rating (0 to 100 scale) (corn (Zea mays); [21]): 0; Foxtail, Giant plant response rating (0 to 100 scale) ([10]; Postemergence, 31 g ai/ha): 0; Foxtail, Giant plant response rating (0 to 100 scale) [10, 21]: 0; Galium plant response rating (0 to 100 scale) ([11]; Postemergence, 31 g ai/ha): 60; Galium plant response rating (0 to 100 scale) [11, 21]: 80; Kochia plant response rating (0 to 100 scale) (kochia (Bassia scoparia) [12]; Postemergence, 31 g ai/ha): 30; Kochia plant response rating (0 to 100 scale) (kochia (Bassia scoparia) [12]; [21]): 70; Pigweed plant response rating (0 to 100 scale) ([13]; Postemergence, 31 g ai/ha): 30; Pigweed plant response rating (0 to 100 scale) [13, 21]: 50; Ragweed plant response rating (0 to 100 scale) ([14]; Postemergence, 31 g ai/ha): 20; Ragweed plant response rating (0 to 100 scale) [14, 21]: 50; Wheat plant response rating (0 to 100 scale) ([15]; Postemergence, 31 g ai/ha): 0; Wheat plant response rating (0 to 100 scale) [15, 21]: 0 |
